System: wheat representing narrow leaf weeds
Experiment: Bioefficacy, greenhouse spray test with IPA glyphosate + adjuvant
Type: in vivo
Details: compared to untreated plant
Description: All bioefficacy testing was done at University of Georgia's Agricultural Experiment Station in Griffin, Georgia Concentrates were first formulated by blending IPA glyphosate salt with the desired amount surfactant and water resulting in a 20 wt % ae and a 6.49% surfactant solution. Prior to spraying two sets of diluted solutions were prepared by dissolving 16 g of concentrates into 984 grams of tap water and a second set by dissolving 500 g of the above dilute solution into 500 g of tap water. […] All of the plants were placed in a temperature controlled greenhouse and measured for growth (or lack of) each week for a period of 4 weeks. The data is reported as % Growth Control compared to untreated plant. The higher the value the better the bioefficacy. When the last measurement was taken at 4 weeks the plants are cut at the roots and the “fresh” weight measured.
Testing in the foregoing manner yielded the following results: • Plant Species—Wheat • IPA-glyphosate application rate—300 g a.e./H
• Plant Species—Wheat • IPA-glyphosate application rate—600 g a.e./H

O=C(O)CNCP(=O)(O)O [IPA-Glyphosate only, N-phosphonomethylglycine]
% Growth Control (IPA-glyphosate application rate 300 g a.e./H): 31% | % Growth Control (IPA-glyphosate application rate 600 g a.e./H): 72%

From patent US11998005B2, “Herbicidal formulations comprising glyphosate and COTE-based adjuvants” (NOURYON CHEMICALS INTERNATIONAL B.V., priority 2018, dated 2024)
